Patent US9034862B2, “Compositions and methods for the treatment of cancer” (priority 2011, dated 2015)
Like-named read-outs stand apart in the source and are kept apart here.

Key:
[1] = system: human lung carcinoma A549; experiment: MTT assay, A549; format: cell-based
Protocol: Solutions of the platinum compounds were freshly prepared in sterile PBS before use and their concentrations quantitated by atomic absorption spectroscopy. Cells were seeded on a 96-well plate (1200 cells per well for cancer cells and 1800 cells per well for the normal lung fibroblasts) in 100 μL RPMI or DMEM media, and incubated for 24 h. […] The cells were then treated with 20 μL of 3-(4,5-dimethylthiazol-2-yl)-2,5-diphenyltetrazolium bromide (MTT) (5 mg/mL in PBS) and incubated for 4 h. The medium was removed, 100 μL of DMSO was added to the cells, and the absorbance of the purple formazan was recorded at 560 nm using a BioTek Synergy HT multi-detection microplate plate reader. Each condition was performed in triplicate and three independent experiments were carried out for each cell line.
Human prostate carcinoma (PC3) and human cervix carcinoma (HeLa) cells were obtained from the ATCC. The human lung carcinoma cell line A549 was kindly provided by David E. Root (Whitehead Institute for Biomedical Research). Cells were incubated at 37° C. in 5% CO2 and grown in RPMI (PC3) or DMEM (A549 and HeLa) medium supplemented with 10% fetal bovine serum and 1% penicillin/streptomycin. Cells were passaged every 3 to 4 days and restarted from the frozen stock upon reaching passage number 20.
Solutions of the platinum agents were freshly prepared in sterile PBS before use and the platinum content was quantitated by AAS. Cells were seeded on 96 well plates (1200 cells per well) in 100 μL RPMI or DMEM media\ and incubated for 24 hours. […] The cells were then treated with 20 μL of 3-(4,5-dimethylthiazol-2-yl)-2,5-diphenyltetrazolium bromide (MTT) (5 mg/mL in PBS) and incubated for 4 h. The medium was removed, 100 μL of DMSO were added to the cells, and the absorbance of the purple formazan was recorded at 570 nm using a BioTek Synergy HT multi-detection microplate plate reader. For each cell line, three independent experiments were carried out in triplicate.

[2] = system: human breast carcinoma MCF7; experiment: MTT assay, MCF7; format: cell-based
Protocol: Human colon carcinoma HT29, human breast carcinoma MCF7, human bone sarcoma U2OS, human prostate carcinoma PC3, and human cervix carcinoma HeLa cells were obtained from the ATCC. A2780/CP70 cisplatin-resistant human ovarian cancer cells were kindly provided by Dr. Stephen B. Howell (Moores UCSD Cancer Center) and the human lung carcinoma cell lines A549 and normal lung fibroblast MRC5 by David E. Root (Whitehead Institute for Biomedical Research). Cells were incubated at 37° C. in 5% CO2 and grown in RPMI (HT29, A2780/CP70, and PC3) or DMEM (A549, MRC5, HeLa, MCF7, and U2OS) medium supplemented with 10% fetal bovine serum and 1% penicillin/streptomycin. Cells were passed every 3 to 4 days and restarted from a frozen stock upon reaching pass number 20.
Solutions of the platinum compounds were freshly prepared in sterile PBS before use and their concentrations quantitated by atomic absorption spectroscopy. […] The cells were then treated with 20 μL of 3-(4,5-dimethylthiazol-2-yl)-2,5-diphenyltetrazolium bromide (MTT) (5 mg/mL in PBS) and incubated for 4 h. The medium was removed, 100 μL of DMSO was added to the cells, and the absorbance of the purple formazan was recorded at 560 nm using a BioTek Synergy HT multi-detection microplate plate reader. Each condition was performed in triplicate and three independent experiments were carried out for each cell line.

pGLuc plasmid = experiment: Platination of pGLuc plasmid; format: biochemical
Protocol: The resulting mixtures were dialyzed (molecular weight cut-off 3.5 kDa) against ddH2O overnight at 4° C. with five changes of ddH2O. The rb values (bound Pt/nucleotide) were determined by UV/Vis and atomic absorption spectroscopy.
In one embodiment, the ratio of bound platinum per plasmid was determined by measuring the Pt concentration by atomic absorption spectroscopy and the DNA concentration by UV/Vis spectroscopy.

[3] = system: Gaussia luciferase expression in human cancer cells; conditions: for Transcription (normalized against unplatinated control): NoPt = 100, cell line not stated
Protocol: Vector Construction and Preparation. […] Preparation of Platinated Insertion Strand. […] The suspension was centrifuged. To a solution of 0.2 mM 16-mer oligonucleotide 5′-[…]*[…] The reaction mixture was incubated in the dark at 37° C. overnight. The reaction was stopped when the solution was frozen. […] After purification, the platinated DNA solution was dialyzed against H2O and lyophilized. […] The insertion strand was further analyzed for nucleotide composition by nuclease S1 digestion to confirm the platination site following a protocol published previously (Table 13) (e.g., see J Am Chem Soc 2007, 129, 6370-6371). The platinated and unplatinated DNA strands (40 μM) were phosphorylated by T4 PNK (0.67 U/μL) at 37° C. for 3 h, followed by a phenol/chloroform/isoamyl alcohol extraction to remove the enzyme. The phosphorylated DNA strands were ethanol precipitated and stored in −80° C. at a concentration of 100 pmol/μL.
Briefly, a 600 μg quantity of pGLuc8temG plasmid was digested with 30 U Nt.BbvCI at 37° C. for 1 h. The reaction mixture was heated at 80° C. for 20 min to deactivate the enzyme, followed by a phenol/chloroform/isoamyl alcohol extraction to remove the enzyme. The mixture was dialyzed against H2O overnight at 4° C. The plasmid was further digested with 30 U Nt.BspQI at 50° C. for 1 h, and the enzyme was heat-deactivated and removed by a phenol/chloroform/isoamyl alcohol extraction. The nicked plasmid was mixed with 1,000 equiv of complementary DNA strand 5′-[…] (SEQ ID NO: 2) in a buffer of 10 mM Tris-HCl, 2 mM MgCl2, 0.4 M NaCl, pH 7.4, heated at 80° C. for 5 min, and subsequently cooled at 4° C. for 5 min for 10 cycles. […] A 120 μg quantity of the gapped plasmid was annealed with 100 equiv of the insertion strand in a buffer of 10 mM Tris-HCl, 2 mM MgCl2, 0.4 M NaCl, pH 7.4 from 90° C. to 4° C. at −1° C./min in a thermocycler. The platinated plasmid was dialyzed against H2O at 4° C. overnight and further purified by treatment with 30 U BsmBI at 55° C. for 1 h. The closed-circular form of plasmid was purified and concentrated by isopycnic centrifugation, followed by n-butanol extraction and ethanol precipitation. The plasmids were quantitated by a Quant-iT™ PicoGreen® dsDNA Kit from Invitrogen (Carlsbad, Calif.), and stored in −80° C. in TE buffer (10 mM Tris-HCl, 2 mM EDTA, pH 7.4).
Transfection of platinated plasmids into mammalian cells was carried out as reported previously (e.g., see ChemBioChem 2011, 12, 1115-1123). A549 and HeLa cells were plated at 2,000 cells per well in 96-well plates. NTera-2 and HT29 cells were plated at 4,000 cells per well in 96-well plates. MCF7 and U2OS cells were plated at 5,000 cells per well in 96-well plates. The cells were allowed to attach and grow for 48 h, and then washed with antibiotic-free culture media right before transfection. Transient transfection of the cells was carried out using Lipofectamine 2000. Briefly, 10 ng of site specifically platinated probes was included in each well. The experiments were performed in quadruplicate. The probes were diluted in OptiMEM, and Lipofectamine was diluted in OptiMEM. The two solutions were combined and incubated for 20 min. The transfection mixture was delivered into each well, and the cells were incubated for 2 h. The cells were washed with antibiotic-free culture media to remove the transfection mixture. A 100 μL volume of fresh, antibiotic-free media was added into each well to start the transcription assay. […]

IC50 ([1]; Table 3, A549 Lung, 72-h incubation): 220 ± 10 nM
IC50 ([1]; Table 4, A549 human lung carcinoma, 72 h incubation): 170 ± 2 nM
IC50 ([1]; Table 5, A549, 72-h incubation): 220 ± 10 nM
IC50 ([1]; Table 11 (Example 3), A549 Lung, 72 h): 220 ± 6 nM
IC50 ([1]; Table 14, A549, MTT assay): 170 ± 10 nM
IC50 ([2]; Table 3, MCF7 Breast, 72-h incubation): 940 ± 90 nM
IC50 ([2]; Table 14, MCF7, MTT assay): 1140 ± 20 nM
Substance: cis-[Pt(NH3)2(phenanthridine)Cl]NO3 [phenanthriplatin]
Pt per plasmid (pGLuc plasmid; rf 0.0008, 16 h at 37° C.): 12.12 Pt per plasmid
rb (bound Pt/nucleotide) (pGLuc plasmid; rf 0.0008, 16 h at 37° C.): 0.0015
Pt per plasmid (pGLuc plasmid; rf 0.0019, 16 h at 37° C.): 15.42 Pt per plasmid
rb (bound Pt/nucleotide) (pGLuc plasmid; rf 0.0019, 16 h at 37° C.): 0.0019
Pt per plasmid (pGLuc plasmid; rf 0.0029, 16 h at 37° C.): 24.28 Pt per plasmid
rb (bound Pt/nucleotide) (pGLuc plasmid; rf 0.0029, 16 h at 37° C.): 0.0030
Pt per plasmid (pGLuc plasmid; rf 0.0060, 16 h at 37° C.): 42.80 Pt per plasmid
rb (bound Pt/nucleotide) (pGLuc plasmid; rf 0.0060, 16 h at 37° C.): 0.0053
Transcription (normalized against unplatinated control) ([3]; 16 hours): 26
Transcription (normalized against unplatinated control) ([3]; 24 hours): 32
Transcription (normalized against unplatinated control) ([3]; 32 hours): 36
Transcription (normalized against unplatinated control) ([3]; 44 hours): 41
transcription inhibition in live mammalian cancer cells ([3]; site-specific cis-[Pt(NH3)2(phen)]2+-dG lesion): strong transcription inhibitor
